For orientation: IC50 means the concentration at which inhibition is half-maximal.

Experiment [1] has as its target JAK2 (Homo sapiens (Human), UniProt O60674). Nature of the experiment: Jak biochemical HTRF assay, JAK2. Particulars: HTRF biochemical assay, recombinant GST-tagged catalytic domain; read-out: JAK2 IC50. A general note: In TR-FRET formats the signal depends on donor and acceptor labels being close together.
The target in experiment [2] is JAK1 (Homo sapiens (Human), UniProt P23458). The experiment is described as follows: Jak biochemical HTRF assay, JAK1. The following applies: HTRF biochemical assay, recombinant GST-tagged catalytic domain; read-out: JAK1 IC50.
JAK1, sequence (P23458 875-1153): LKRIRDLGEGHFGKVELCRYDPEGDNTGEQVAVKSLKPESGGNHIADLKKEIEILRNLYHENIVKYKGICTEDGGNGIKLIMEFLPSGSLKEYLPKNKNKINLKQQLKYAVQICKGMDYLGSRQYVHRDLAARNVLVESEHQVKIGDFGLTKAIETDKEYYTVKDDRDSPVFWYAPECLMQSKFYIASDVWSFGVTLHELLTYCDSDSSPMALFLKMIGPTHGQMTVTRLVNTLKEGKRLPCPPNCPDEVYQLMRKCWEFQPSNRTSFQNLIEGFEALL

JAK2, sequence (O60674 849-1124): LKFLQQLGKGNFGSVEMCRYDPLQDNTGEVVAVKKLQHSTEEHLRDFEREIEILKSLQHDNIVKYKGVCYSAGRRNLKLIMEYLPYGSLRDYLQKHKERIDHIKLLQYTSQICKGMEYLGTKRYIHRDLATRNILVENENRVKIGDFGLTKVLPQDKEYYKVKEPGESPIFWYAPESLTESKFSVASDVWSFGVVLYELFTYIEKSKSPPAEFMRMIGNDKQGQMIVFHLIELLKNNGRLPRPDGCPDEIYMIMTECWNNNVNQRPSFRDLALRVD

Take `Cc1cc(Nc2nn([C@H]3CCCC[C@@H]3C#N)c3cc[nH]c(=O)c23)ccc1C(C(C)C)n1ccnn1` (single isomer, unassigned) [Example 15-37, (1S,2S)-2-[3-({3-methyl-4-[(1S or 1R)-2-methyl-1-(1H-1,2,3-triazol-1-yl)propyl]phenyl}amino)-4-oxo-4,5-dihydro-1H-pyrazolo[4,3-c]pyridin-1-yl]cyclohexanecarbonitrile]: the 50% inhibitory concentration (IC50) in experiment [1] was 250 pM; in experiment [2] it was 66 pM.
As for `N#C[C@H]1CCCC[C@@H]1n1nc(Nc2ccc([C@@H](N)C(F)(F)F)cc2)c2c(=O)[nH]ccc21` [Example 7-3, (1S,2S)-2-[3-({4-[(1R)-1-amino-2,2,2-trifluoroethyl]phenyl}amino)-4-oxo-4,5-dihydro-1H-pyrazolo[4,3-c]pyridin-1-yl]cyclohexanecarbonitrile], the IC50 in experiment [1] is 370 pM; in experiment [2], 120 pM.
For `N#C[C@H]1CCCC[C@@H]1n1nc(Nc2cccc(CN3CCOCC3)c2)c2c(=O)[nH]ccc21` [Example 3-33, (1S,2S)-2-(3-{[3-(morpholin-4-ylmethyl)phenyl]amino}-4-oxo-4,5-dihydro-1H-pyrazolo[4,3-c]pyridin-1-yl)cyclohexanecarbonitrile], the IC50 in experiment [1] was found to be 1700 pM; in experiment [2] it was 1300 pM.
Taken in the same sequence, the figures for `N#C[C@H]1CCCC[C@@H]1n1nc(Nc2cccc(Cn3nccn3)c2)c2c(=O)[nH]ccc21` [Example 3-28, (1S,2S)-2-(4-oxo-3-{[3-(2H-1,2,3-triazol-2-ylmethyl)phenyl]amino}-4,5-dihydro-1H-pyrazolo[4,3-c]pyridin-1-yl)cyclohexanecarbonitrile] were 930 pM and 1000 pM.
Taken in the same sequence, the figures for `Cc1cc(Nc2nn([C@H]3CCCC[C@@H]3C#N)c3cc[nH]c(=O)c23)ccc1C(=O)N1CCCC1` [Example 3-27, (1S,2S)-2-(3-{[3-methyl-4-(pyrrolidin-1-ylcarbonyl)phenyl]amino}-4-oxo-4,5-dihydro-1H-pyrazolo[4,3-c]pyridin-1-yl)cyclohexanecarbonitrile] were 200 pM and 130 pM.
Taken in the same sequence, the figures for `COCCn1cc(-c2ccc(Nc3nn([C@H]4CCCC[C@@H]4C#N)c4cc[nH]c(=O)c34)cc2)cn1` [Example 3-145, (1S,2S)-2-[3-({4-[1-(2-methoxyethyl)-1H-pyrazol-4-yl]phenyl}amino)-4-oxo-4,5-dihydro-1H-pyrazolo[4,3-c]pyridin-1-yl]cyclohexanecarbonitrile] were 1800 pM and 120 pM.
In the case of `N#C[C@H]1CCCC[C@@H]1n1nc(Nc2ccc3c(c2)CN(C(=O)c2cnc(N4CCCCC4)cn2)C3)c2c(=O)[nH]ccc21` [Example 3-158, (1S,2S)-2-[4-oxo-3-({2-[(5-piperidin-1-ylpyrazin-2-yl)carbonyl]-2,3-dihydro-1H-isoindol-5-yl}amino)-4,5-dihydro-1H-pyrazolo[4,3-c]pyridin-1-yl]cyclohexanecarbonitrile], the IC50 in experiment [1] came to 1500 pM; in experiment [2], 980 pM.
Turning to `N#C[C@H]1CCCC[C@@H]1n1nc(Nc2ccc3c(c2)CNC3C(F)F)c2c(=O)[nH]ccc21` (single isomer, unassigned) [Example 15-28, (1S,2S)-2-(3-{[(1S or 1R)-1-(difluoromethyl)-2,3-dihydro-1H-isoindol-5-yl]amino}-4-oxo-4,5-dihydro-1H-pyrazolo[4,3-c]pyridin-1-yl)cyclohexanecarbonitrile], the 50% inhibitory concentration (IC50) in experiment [1] stood at 630 pM; in experiment [2], 250 pM.
Taken in the same sequence, the figures for `C[C@H](NC1CCC(n2nc(Nc3ccc(Cl)cc3)c3c(=O)[nH]ccc32)C(C#N)C1)C1CC1` (stereo in doubt) [Example 4-1, (1R,2R,5S)-2-(3-((4-Chlorophenyl)amino)-4-oxo-4,5-dihydro-1H-pyrazolo[4,3-c]pyridin-1-yl)-5-(((S)-1-cyclopropylethyl)amino)cyclohexanecarbonitrile] were 122000 pM and 5300 pM.
Taken in the same sequence, the figures for `N#C[C@H]1CCCC[C@@H]1n1nc(Nc2ccc(CNCC(F)(F)F)cc2)c2c(=O)[nH]ccc21` [Example 3-57, (1S,2S)-2-{4-oxo-3-[(4-{[(2,2,2-trifluoroethyl)amino]methyl}phenyl)amino]-4,5-dihydro-1H-pyrazolo[4,3-c]pyridin-1-yl}cyclohexanecarbonitrile] were 530 pM and 200 pM.
Taken in the same sequence, the figures for `N#C[C@H]1CCCC[C@@H]1n1nc(Nc2ccc3c(c2)CN([C@H]2CC[C@@H](C(=O)O)CC2)S3(=O)=O)c2c(=O)[nH]ccc21` [Example 16-2, (1S,4S)-4-(5-((1-((1S,2S)-2-cyanocyclohexyl)-4-oxo-4,5-dihydro-1H-pyrazolo[4,3-c]pyridin-3-yl)amino)-1,1-dioxidobenzo[d]isothiazol-2(3H)-yl)cyclohexanecarboxylic acid] were 470 pM and 69 pM.
As to `CC(O)(CO)c1cccc(Nc2nn([C@H]3CCCC[C@@H]3C#N)c3cc[nH]c(=O)c23)c1` (stereo partly drawn) [Example 11-1, (1S,2S)-2-(3-((3-(1,2-Dihydroxypropan-2-yl)phenyl)amino)-4-oxo-4,5-dihydro-1H-pyrazolo[4,3-c]pyridin-1-yl)cyclohexanecarbonitrile], the values for the half-inhibitory concentration (IC50) in experiment [1] and in experiment [2] were 4000 pM and 2500 pM, respectively.
Taken in the same sequence, the figures for `COCC(C)(O)c1cc(Nc2nn([C@H]3CCCC[C@@H]3C#N)c3cc[nH]c(=O)c23)ccc1S(C)(=O)=O` (stereo partly drawn) [Example 3-85, (1S,2S)-2-(3-{[3-(1-hydroxy-2-methoxy-1-methylethyl)-4-(methylsulfonyl)phenyl]amino}-4-oxo-4,5-dihydro-1H-pyrazolo[4,3-c]pyridin-1-yl)cyclohexanecarbonitrile] were 4200 pM and 3000 pM.
Consider `N#C[C@H]1CCCC[C@@H]1n1nc(Nc2ccc(C3CCNCC3)cc2)c2c(=O)[nH]ccc21` [Example 15-25, (1S,2S)-2-{4-oxo-3-[(4-piperidin-4-ylphenyl)amino]-4,5-dihydro-1H-pyrazolo[4,3-c]pyridin-1-yl}cyclohexanecarbonitrile], for which the half-maximal inhibitory concentration (IC50) in experiment [1] turned out to be 980 pM; in experiment [2] it was 480 pM.
Taken in the same sequence, the figures for `CC1(C)Cc2cc(Nc3nn([C@H]4CCCC[C@@H]4C#N)c4cc[nH]c(=O)c34)ccc2S1(=O)=O` [Example 21-1, (1S,2S)-2-(3-((2,2-Dimethyl-1,1-dioxido-2,3-dihydrobenzo[b]thiophen-5-yl)amino)-4-oxo-4,5-dihydro-1H-pyrazolo[4,3-c]pyridin-1-yl)cyclohexanecarbonitrile] were 280 pM and 56 pM.
In the case of `N#C[C@H]1CCC[C@@H]1n1nc(Nc2ccc(C(N)C(F)(F)F)cc2)c2c(=O)[nH]ccc21` (single isomer, unassigned) [Example 3-136, (1S,2S)-2-[3-({4-[(1R or 1S)-1-amino-2,2,2-trifluoroethyl]phenyl}amino)-4-oxo-4,5-dihydro-1H-pyrazolo[4,3-c]pyridin-1-yl]cyclopentanecarbonitrile], the results for the IC50 in experiment [1] and in experiment [2] were 700 pM and 280 pM, respectively.
Taken in the same sequence, the figures for `CC(C)(C)OC(=O)NCc1cc(F)cc(Nc2nn([C@H]3CCCC[C@@H]3C#N)c3cc[nH]c(=O)c23)c1` [Example 3-36, tert-butyl [3-({1-[(1S,25)-2-cyanocyclohexyl]-4-oxo-4,5-dihydro-1H-pyrazolo[4,3-c]pyridin-3-yl}amino)-5-fluorobenzyl]carbamate] were 3800 pM and 2300 pM.
Taken in the same sequence, the figures for `CC(C)(C)[S@+]([O-])N[C@H](c1cccc(Nc2nn([C@H]3CCCC[C@@H]3C#N)c3cc[nH]c(=O)c23)c1)C(F)(F)F` [Example 3-42, N-{(1R)-1-[3-({1-[(1S,2S)-2-cyanocyclohexyl]-4-oxo-4,5-dihydro-1H-pyrazolo[4,3-c]pyridin-3-yl}amino)phenyl]-2,2,2-trifluoroethyl}-2-methylpropane-2-sulfinamide] were 13000 pM and 460 pM.
Taken in the same sequence, the figures for `CCN1Cc2cc(Nc3nn([C@H]4CCCC[C@@H]4C#N)c4cc[nH]c(=O)c34)ccc2S1(=O)=O` [Example 3-60, (1S,2S)-2-{3-[(2-ethyl-1,1-dioxido-2,3-dihydro-1,2-benzisothiazol-5-yl)amino]-4-oxo-4,5-dihydro-1H-pyrazolo[4,3-c]pyridin-1-yl}cyclohexanecarbonitrile] were 410 pM and 44 pM.
For the molecule `N#C[C@H]1CCCC[C@@H]1n1nc(Nc2cccc(CNCC(F)(F)F)c2)c2c(=O)[nH]ccc21` [Example 3-39, (1S,2S)-2-{4-oxo-3-[(3-{[(2,2,2-trifluoroethyl)amino]methyl}phenyl)amino]-4,5-dihydro-1H-pyrazolo[4,3-c]pyridin-1-yl}cyclohexanecarbonitrile], the IC50 was 1800 pM in experiment [1] and 640 pM in experiment [2].
Taken in the same sequence, the figures for `CC(C)(C)OC(=O)CC(C)(C)N1Cc2cc(Nc3nn([C@H]4CCCC[C@@H]4C#N)c4cc[nH]c(=O)c34)ccc2S1(=O)=O` [Example 3-155, tert-butyl 3-[5-({1-[(1S,2S)-2-cyanocyclohexyl]-4-oxo-4,5-dihydro-1H-pyrazolo[4,3-c]pyridin-3-yl}amino)-1,1-dioxido-1,2-benzisothiazol-2(3H)-yl]-3-methylbutanoate] were 710 pM and 120 pM.
Taken in the same sequence, the figures for `N#C[C@@H]1C[C@@H](N2CCC2)CC[C@H]1n1nc(Nc2ccc(C(F)(F)F)cc2)c2c(=O)[nH]ccc21` [Example 5-9, (1R,2R,5S)-5-(azetidin-1-yl)-2-(4-oxo-3-((4-(trifluoromethyl)phenyl)amino)-4,5-dihydro-1H-pyrazolo[4,3-c]pyridin-1-yl)cyclohexanecarbonitrile] were 660000 pM and 25000 pM.
Take `N#C[C@H]1CCC[C@@H]1n1nc(Nc2ccc(C(N)C(F)(F)F)cc2)c2c(=O)[nH]ccc21` (single isomer, unassigned) [Example 3-137, (1S,2S)-2-[3-({4-[(1S or 1R)-1-amino-2,2,2-trifluoroethyl]phenyl}amino)-4-oxo-4,5-dihydro-1H-pyrazolo[4,3-c]pyridin-1-yl]cyclopentanecarbonitrile]: the IC50 came out at 590 pM in experiment [1] and 220 pM in experiment [2].

Source of the values: patent US9725445B2, “Cycloalkyl nitrile pyrazolo pyridones as Janus kinase inhibitors” (Merck Sharp & Dohme Corp., priority 2013, dated 2017).
